| melting point [°C] | Structure (SMILES) |
| --- | --- |
| 231 to 233 | COc1cc2c(cc1OC)C(CO)Cc1c-2cnc2cc3c(cc12)OCO3 (centres unmarked) [Compound 208] |
| 212 to 214 | COc1cc2c(cc1OC)C(CC#N)Cc1c-2cnc2cc3c(cc12)OCO3 (centres unmarked) [Compound 209] |

Reference: patent US7517867B2, “Topoisomerase-targeting agents” (Rutgers, The State University of New Jersey, priority 2002, dated 2009)
